Source: patent US10105323B2, “Pharmaceutical dosage form for immediate release of an indolinone derivative” (Boehringer Ingelheim International GmbH, priority 2008, dated 2018)
Where two headings read alike, the source gives them in different places.

Key:
[1] = Phase 2 monotherapy trials in NSCLC or HRPC patients, pre-dose plasma concentrations; type: in vivo, human; settings: 150 and 250 mg twice daily, soft gelatin capsule
[2] = Stress, long-term and accelerated stability studies of soft gelatin capsule systems; type: physicochemical; settings: 1 month at 70° C., long-term (3 years), accelerated (6 months)
Source text: An advantage of such soft gelatin capsule containing a lipid suspension is that the water uptake into the formulation is very unlikely. The dosage form is divided into three different compartments, namely (a) a hydrophilic capsule shell and (b) the hydrophobic carrier system in which (c) the slightly hygroscopic powder of active substance is suspended. Due to ambient moisture the content of water may vary within these different compartments. It will migrate by diffusion until an equilibrium state is reached. The water content may affect different properties of the drug product, such as the chemical stability of the active substance (predominantly via hydrolysis), the dissolution of the active substance, or the elasticity of the capsule shell. The water uptake in the present system is primarily in the capsule shell. This can be shown by water vapour sorption experiments as well as by the correlation of the mass gain with the softening of the capsule (shown in FIG. 1). […] This is confirmed by the stress stability studies of, for example, 1 month at 70° C., and by long-term (3 years) and accelerated (6 months) stability study results for the systems in accordance with the present invention.

[3] = Phase I trials in cancer patients, dose proportionality of plasma exposure; type: in vivo, human; settings: single dose and steady state, qd and bid dosing, visual inspection
Source text: However, in three Phase I trials in cancer patients with various advanced solid tumors there was no sign for a deviation from a dose proportional increase in AUC and Cmax of the active substance observed through visual inspection neither after single dose nor at steady state for once and twice daily dosing (FIGS. 9 and 10). […] There was no deviation from dose-proportionality observed for drug plasma concentrations measured before drug administration at steady state (Cpre,ss) in cancer patients in various clinical trials, found through visual inspection.

[4] = human, in vivo

## COC(=O)c1ccc2c(c1)NC(=O)/C2=C(\Nc1ccc(N(C)C(=O)CN2CCN(C)CC2)cc1)c1ccccc1 [active substance, 3-Z-[1-(4-(N-((4-methyl-piperazin-1-yl)-methylcarbonyl)-N-methyl-amino)-anilino)-1-phenyl-methylene]-6-methoxycarbonyl-2-indolinone-monoethanesulphonate]
[1]
  pre-dose plasma concentrations at steady state versus dose: no obvious deviation from a dose proportional increase
[2]
  effect of water uptake on chemical stability: not affect the chemical stability
[3]
  gMean AUCτ,ss versus dose: increased in a dose-proportional manner
  gMean Cmax,ss versus dose: increased in a dose-proportional manner
[4]
  time to reach maximum plasma concentration (median value): 2 h
  time to reach maximum plasma concentration (range): 0.75 to 6 h
[4]; 150 mg
  plasma concentration of the active substance at maximum (gMean value): about 9 ng/mL
[4]; 24 h
  plasma concentration as % of the maximum plasma concentration: about 15%
[4]; 48 h
  plasma concentration as % of the maximum plasma concentration: 7-8%
